In article PMC12682947, “Identification of New KCNT1‐Epilepsy Drugs by In Silico, Cell, and Drosophila Modeling” (Annals of Neurology, 2025):
Structures can show the parent of a compound that is named as a salt. Where two headings read alike, the source gives them in different places.

Target: T1, WT/Y796H KCNT1 channels (Homo sapiens, UniProt Q5JUK3, Y796H)
T1 construct: T2A self-cleaving motif ([…]) following the first subunit (C); expressed in transfected cells; host or cells: CHO cells
T1 sequence (Q5JUK3 1-1230): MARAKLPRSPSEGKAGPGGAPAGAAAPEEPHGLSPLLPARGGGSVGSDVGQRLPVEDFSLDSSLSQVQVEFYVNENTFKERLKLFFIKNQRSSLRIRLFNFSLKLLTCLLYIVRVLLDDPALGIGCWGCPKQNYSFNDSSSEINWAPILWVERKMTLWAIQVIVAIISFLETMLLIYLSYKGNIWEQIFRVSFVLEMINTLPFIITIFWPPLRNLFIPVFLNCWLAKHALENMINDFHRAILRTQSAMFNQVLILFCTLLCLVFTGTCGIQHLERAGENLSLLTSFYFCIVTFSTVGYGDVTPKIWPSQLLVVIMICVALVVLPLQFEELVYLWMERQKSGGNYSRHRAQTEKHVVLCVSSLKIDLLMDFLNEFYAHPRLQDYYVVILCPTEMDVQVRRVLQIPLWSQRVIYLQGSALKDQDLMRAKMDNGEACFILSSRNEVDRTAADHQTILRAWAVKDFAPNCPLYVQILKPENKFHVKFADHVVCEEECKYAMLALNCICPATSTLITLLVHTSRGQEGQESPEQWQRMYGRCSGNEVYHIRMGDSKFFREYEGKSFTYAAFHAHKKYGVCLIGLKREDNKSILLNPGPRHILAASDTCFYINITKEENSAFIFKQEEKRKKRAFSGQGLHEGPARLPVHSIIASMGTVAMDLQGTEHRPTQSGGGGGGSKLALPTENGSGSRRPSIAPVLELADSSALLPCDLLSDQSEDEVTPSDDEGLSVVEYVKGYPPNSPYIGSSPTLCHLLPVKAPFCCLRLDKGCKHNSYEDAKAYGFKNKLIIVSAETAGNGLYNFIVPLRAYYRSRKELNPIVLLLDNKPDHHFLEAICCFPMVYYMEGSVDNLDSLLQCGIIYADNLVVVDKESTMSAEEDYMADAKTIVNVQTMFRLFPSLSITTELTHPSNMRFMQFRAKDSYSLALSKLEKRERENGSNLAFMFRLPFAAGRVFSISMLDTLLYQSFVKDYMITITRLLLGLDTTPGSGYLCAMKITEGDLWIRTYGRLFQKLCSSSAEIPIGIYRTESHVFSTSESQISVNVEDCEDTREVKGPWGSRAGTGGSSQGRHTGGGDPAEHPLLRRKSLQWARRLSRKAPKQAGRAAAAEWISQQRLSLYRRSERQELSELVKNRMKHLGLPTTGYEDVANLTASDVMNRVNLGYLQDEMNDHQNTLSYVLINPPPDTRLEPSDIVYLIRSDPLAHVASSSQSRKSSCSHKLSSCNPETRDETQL
T1 sequence (Q5JUK3 2-1230 Y796H limits assumed): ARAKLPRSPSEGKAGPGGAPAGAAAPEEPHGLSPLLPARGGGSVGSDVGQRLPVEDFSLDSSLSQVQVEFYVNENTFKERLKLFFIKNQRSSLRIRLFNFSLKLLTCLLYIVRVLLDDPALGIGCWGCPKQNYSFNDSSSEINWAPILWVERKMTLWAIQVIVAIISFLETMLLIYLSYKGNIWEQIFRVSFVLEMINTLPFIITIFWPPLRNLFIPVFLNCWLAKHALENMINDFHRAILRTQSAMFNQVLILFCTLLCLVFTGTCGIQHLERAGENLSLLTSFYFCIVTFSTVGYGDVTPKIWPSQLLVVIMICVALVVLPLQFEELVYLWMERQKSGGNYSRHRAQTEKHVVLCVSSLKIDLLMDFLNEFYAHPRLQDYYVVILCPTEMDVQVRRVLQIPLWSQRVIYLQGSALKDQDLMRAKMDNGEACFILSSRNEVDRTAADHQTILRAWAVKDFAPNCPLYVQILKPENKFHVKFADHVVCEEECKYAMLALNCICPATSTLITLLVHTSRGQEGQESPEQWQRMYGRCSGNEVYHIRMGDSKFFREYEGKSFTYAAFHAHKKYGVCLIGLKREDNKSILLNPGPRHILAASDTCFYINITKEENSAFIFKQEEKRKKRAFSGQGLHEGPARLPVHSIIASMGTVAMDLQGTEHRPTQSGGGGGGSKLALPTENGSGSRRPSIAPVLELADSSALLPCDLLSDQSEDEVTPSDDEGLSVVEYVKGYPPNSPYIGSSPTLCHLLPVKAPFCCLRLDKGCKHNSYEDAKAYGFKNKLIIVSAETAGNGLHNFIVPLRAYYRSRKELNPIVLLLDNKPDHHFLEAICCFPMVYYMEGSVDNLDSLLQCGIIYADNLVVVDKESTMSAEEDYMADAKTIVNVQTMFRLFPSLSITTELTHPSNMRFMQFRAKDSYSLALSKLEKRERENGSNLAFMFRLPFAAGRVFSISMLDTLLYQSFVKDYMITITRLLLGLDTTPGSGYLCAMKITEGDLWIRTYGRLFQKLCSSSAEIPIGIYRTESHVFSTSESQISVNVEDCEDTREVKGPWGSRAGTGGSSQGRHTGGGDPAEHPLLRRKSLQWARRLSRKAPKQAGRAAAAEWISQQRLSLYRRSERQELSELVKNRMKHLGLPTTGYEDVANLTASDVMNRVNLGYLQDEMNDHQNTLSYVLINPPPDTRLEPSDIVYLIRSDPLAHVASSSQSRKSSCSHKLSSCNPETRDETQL
Experiment: Whole-cell patch clamp of WT/Y796H KCNT1 channels expressed in CHO cells
Type: cell-based
Excerpt: To replicate the heterozygous nature of KCNT1‐associated disorders and obtain channels comprising wild‐type (WT) and mutated subunits, a concatemeric approach was taken. To generate human KCNT1 concatemers, plasmids termed donor and recipient were generated from the pcDNA6‐KCNT1 construct used previously[16] and empty pcDNA6 V5/His6 vector (Invitrogen) using standard polymerase chain reaction (PCR) and cloning techniques. The insert of the donor construct comprised the KCNT1 coding sequence that lacked a start codon and preceded by bases encoding a […] linker. […] The recipient construct was generated by deleting the stop codon and introducing a unique XhoI site. Sequences containing disease mutation Y796H were subcloned into these constructs from a plasmid used previously.[16] All sequences generated by PCR were confirmed by Sanger sequencing (Genewiz, Takeley, UK). Finally, the concatemeric construct was generated by subcloning the XhoI/AgeI fragment from the donor plasmid, containing the in‐frame linker and complete subunit sequence into the same sites in the recipient plasmid. Recombination‐deficient competent Escherichia coli (E. coli) cells and 32°C incubation temperature were used to reduce the frequency of deletions between identical sequences in the plasmid, which was confirmed by restriction analysis. For other experiments, constructs with WT, G288S, R398Q, or R928C mutant forms of KCNT1 cDNA, tagged with YFP‐6His in the pCMV‐entry vectors, were described previously.[10]
The CHO cells were cultured in Dulbecco's modified Eagle's Medium (ThermoFisher, UK) supplemented with 10% (v/v) fetal bovine serum, 50 U/ml penicillin and 0.05 mg/ml streptomycin, and incubated at 37°C in 5% CO2 atmosphere. For whole cell recording of WT/Y796H KCNT1, CHO cells were transiently co‐transfected with concatemeric WT/Y796H and EYFP, as described previously.[29] For electrophysiological experiments, cells were plated onto borosilicate glass cover slips and used 2 to 4 days later. Human embryonic kidney 293T cells (HEK293T) were cultured in the same manner, but with medium supplemented with 2 mM L‐glutamine, and 1% (v/v) nonessential amino acids. For excised inside‐out recording of homomeric WT or mutant YFP‐tagged KCNT1, HEK293T cells plated on glass cover slips were transfected using Attractene Transfection Reagent (Qiagen, Germany) according to the manufacturer's instructions and used 2 to 3 days later.
Whole cell recordings from transiently transfected CHO cells were conducted at room temperature and analyzed as described previously.[29] The pipette (intracellular) solution contained, in mM, 100 K‐gluconate, 30 KCl, 10 Na‐gluconate, 29 glucose, 5 EGTA, and 10 HEPES, adjusted to pH 7.3 with KOH and the bath (extracellular) solution contained, in mM, 140 NaCl, 1 CaCl2, 5 KCl, 29 glucose, 10 HEPES, and 1 MgCl2, adjusted to pH 7.4 with NaOH. For current‐voltage and conductance‐voltage analysis of the concatemeric constructs, cells were held at −80 mV and 400 ms pulses were applied to voltages between −100 and 80 mV. Conductance values (G) with each voltage pulse (V) were obtained by dividing the peak steady‐state current by the driving force (command voltage minus the measured reversal potential). Conductance‐voltage data were fit by a Boltzmann function, G = (G max – G min)/(1 + e^(V‐V½)/k)) + G min, where G max and G min are the maximum and minimum conductance values, V ½ the half‐maximal activation voltage, and slope k. The liquid junction potential was calculated and was used to correct voltage values after data collection. Inhibition by drugs, which were obtained from commercial sources, was determined from currents evoked by 500 ms voltage ramps from −100 to 0 mV at 0.2 hertz (Hz) as described previously.[16] Initially, the drugs (10 mM in DMSO) were diluted to 10 μM in a bath solution and applied via gravity perfusion for 2 minutes, followed by at least a 2‐minute wash with drug‐free solution prior to addition of the next drug. […]

[1] = whole-cell patch clamp, CHO cells
[2] = whole-cell patch clamp, CHO cells, concentration-inhibition analysis, read-out: mean ± SEM IC50

SMILES: CCOc1nc2cccc(C(=O)OC(C)OC(=O)OC3CCCCC3)c2n1Cc1ccc(-c2ccccc2-c2nn[nH]n2)cc1 (stereo not shown) [Candesartan cilexetil, candesartan cilexetil]
- potency of concentration-dependent inhibition (in words) [1]: much less potent

SMILES: O=C(OCCN1CCN(c2cccc(C(F)(F)F)c2)CC1)c1ccccc1Nc1ccnc2cc(C(F)(F)F)ccc12 [antrafenine]
- IC50: 1.3 ± 0.2 µM
- inhibition of WT/Y796H KCNT1 channels at 10 μM [1]: inhibited

SMILES: CC(C)c1c(C(=O)Nc2ccccc2)c(-c2ccccc2)c(-c2ccc(F)cc2)n1CC[C@@H](O)C[C@@H](O)CC(=O)O [atorvastatin]
- inhibition of WT/Y796H KCNT1 channels at 10 μM [1]: inhibited
- IC50 [2]: 7.54 ± 0.99 µM

SMILES: CC(C)[C@@H](C)/C=C/[C@@H](C)[C@H]1CC[C@H]2/C(=C/C=C3\C[C@@H](O)CC[C@@H]3C)CCC[C@]12C [dihydrotachysterol]
- inhibition of WT/Y796H KCNT1 channels at 10 μM [1]: did not exhibit inhibition

SMILES: CC(C)(C)NC(=O)[C@@H]1CN(Cc2cccnc2)CCN1C[C@@H](O)C[C@@H](Cc1ccccc1)C(=O)N[C@H]1c2ccccc2C[C@H]1O [indinavir]
- inhibition of WT/Y796H KCNT1 channels at 10 μM [1]: did not exhibit inhibition

SMILES: CS(=O)(=O)c1cccc(C[C@H](NC(=O)c2c(Cl)cc3c(c2Cl)CCN(C(=O)c2ccc4ccoc4c2)C3)C(=O)O)c1 [lifitegrast]
- inhibition of WT/Y796H KCNT1 channels at 10 μM [1]: did not exhibit inhibition

SMILES: Cc1c(O)cccc1C(=O)N[C@@H](CSc1ccccc1)[C@H](O)CN1C[C@H]2CCCC[C@H]2C[C@H]1C(=O)NC(C)(C)C [nelfinavir mesylate]
- inhibition of WT/Y796H KCNT1 channels at 10 μM [1]: inhibited
- IC50 [2]: 2.86 ± 0.3 µM

SMILES: CNC(=O)c1cc(Oc2ccc(NC(=O)Nc3ccc(Cl)c(C(F)(F)F)c3)c(F)c2)ccn1 [regorafenib]
- inhibition of WT/Y796H KCNT1 channels at 10 μM [1]: inhibited
- IC50 [2]: 10.3 ± 1.25 µM

SMILES: CC(C)N1CCN(c2ccc(OCC3COC(Cn4cncn4)(c4ccc(Cl)cc4Cl)O3)cc2)CC1 (stereo not shown) [terconazole]
- inhibition of WT/Y796H KCNT1 channels at 10 μM [1]: did not exhibit inhibition
